Assays:
THZ531 = compound: CN(C)C/C=C/C(=O)Nc1ccc(C(=O)N2CCC[C@@H](Nc3ncc(Cl)c(-c4c[nH]c5ccccc45)n3)C2)cc1 [THZ531]; test: GR value, 72 h; higher = faster growth (1 = untreated, <0 = killing);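 also: breast cancer and non-malignant breast epithelial lines, nine half-log doses, viable cells counted by Hoechst and LIVE/DEAD dye imaging versus time-zero plates and DMSO controls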
Neratinib/HKI272 = compound: CCOc1cc2ncc(C#N)c(Nc3ccc(OCc4ccccn4)c(Cl)c3)c2cc1NC(=O)/C=C/CN(C)C [Neratinib/HKI272]; test: as above
Flavopiridol [1] = compound: T1, CN1CC[C@H](c2c(O)cc(O)c3c(=O)cc(-c4ccccc4Cl)oc23)[C@H](O)C1 [Flavopiridol]; test: as above
THZ1 = compound: CN(C)C/C=C/C(=O)Nc1ccc(C(=O)Nc2cccc(Nc3ncc(Cl)c(-c4c[nH]c5ccccc45)n3)c2)cc1 [THZ1]; test: as above
[2] = compound: CC(=O)c1c(C)c2cnc(Nc3ccc(N4CCNCC4)cn3)nc2n(C2CCCC2)c1=O; test: as above
YKL-5-124 = compound: C=CC(=O)Nc1ccc(C(=O)Nc2[nH]nc3c2CN(C(=O)N[C@H](CN(C)C)c2ccccc2)C3(C)C)cc1 [YKL-5-124]; test: as above
BSJ-03-123 = compound: CC(=O)c1c(C)c2cnc(Nc3ccc(N4CCN(CCOCCOCCOCCNC(=O)COc5cccc6c5C(=O)N(C5CCC(=O)NC5=O)C6=O)CC4)cn3)nc2n(C2CCCC2)c1=O [BSJ-03-123]; test: as above
LEE011/Ribociclib = compound: CN(C)C(=O)c1cc2cnc(Nc3ccc(N4CCNCC4)cn3)nc2n1C1CCCC1 [LEE011/Ribociclib]; test: as above
[3] = compound: CCN1CCN(Cc2ccc(Nc3ncc(F)c(-c4cc(F)c5nc(C)n(C(C)C)c5c4)n3)nc2)CC1; test: as above
[4] = compound: CCc1cnn2c(NCc3ccc[n+]([O-])c3)cc(N3CCCC[C@H]3CCO)nc12; test: as above
Flavopiridol [5] = compound: T1, Flavopiridol; test: increase in dead-cell fraction, 72 h; higher = more death;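 also: breast cancer cell lines in 384-well plates, stained with Hoechst plus LIVE/DEAD far red dye and imaged, cells above an LDR intensity threshold counted dead, Hoechst-negative corpses included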
[6] = compound: CCN1CCN(Cc2ccc(Nc3ncc(F)c(-c4cc(F)c5nc(C)n(C(C)C)c5c4)n3)nc2)CC1; test: as above

Cell Line: MDAMB231
- GR value (THZ531; 0.0001 µM): 1.03 GR
- GR value (THZ531; 0.0003162 µM): 0.974 GR
- GR value (THZ531; 0.001 µM): 0.936 GR
- GR value (THZ531; 0.003162 µM): 1.02 GR
- GR value (THZ531; 0.01 µM): 0.939 GR
- GR value (THZ531; 0.03162 µM): 0.975 GR
- GR value (THZ531; 0.1 µM): 0.751 GR
- GR value (THZ531; 0.3162 µM): 0.443 GR
- GR value (THZ531; 1 µM): -0.275 GR
- GR value (Neratinib/HKI272; 0.0003162 µM): 1.03 GR
- GR value (Neratinib/HKI272; 0.001 µM): 0.999 GR
- GR value (Neratinib/HKI272; 0.003162 µM): 0.978 GR
- GR value (Neratinib/HKI272; 0.01 µM): 1.05 GR
- GR value (Neratinib/HKI272; 0.03162 µM): 1.03 GR
- GR value (Neratinib/HKI272; 0.1 µM): 1.01 GR
- GR value (Neratinib/HKI272; 0.3162 µM): 0.917 GR
- GR value (Neratinib/HKI272; 1 µM): 0.688 GR
- GR value (Neratinib/HKI272; 3.162 µM): -0.0968 GR
- GR value (Flavopiridol [1]; 0.0001 µM): 1.02 GR
- GR value (Flavopiridol [1]; 0.0003162 µM): 1.03 GR
- GR value (Flavopiridol [1]; 0.001 µM): 1 GR
- GR value (Flavopiridol [1]; 0.003162 µM): 0.886 GR
- GR value (Flavopiridol [1]; 0.01 µM): 0.858 GR
- GR value (Flavopiridol [1]; 0.03162 µM): 0.866 GR
- GR value (Flavopiridol [1]; 0.1 µM): 0.656 GR
- GR value (Flavopiridol [1]; 0.3162 µM): 0.152 GR
- GR value (Flavopiridol [1]; 1 µM): -0.434 GR
- GR value (THZ1; 0.0001 µM): 1.02 GR
- GR value (THZ1; 0.0003162 µM): 0.992 GR
- GR value (THZ1; 0.001 µM): 0.993 GR
- GR value (THZ1; 0.003162 µM): 1.03 GR
- GR value (THZ1; 0.01 µM): 0.972 GR
- GR value (THZ1; 0.03162 µM): 0.701 GR
- GR value (THZ1; 0.1 µM): 0.26 GR
- GR value (THZ1; 0.3162 µM): -0.0565 GR
- GR value (THZ1; 1 µM): -0.5 GR
- GR value ([2]; 0.0003162 µM): 1.08 GR
- GR value ([2]; 0.001 µM): 1.02 GR
- GR value ([2]; 0.003162 µM): 0.921 GR
- GR value ([2]; 0.01 µM): 0.824 GR
- GR value ([2]; 0.03162 µM): 0.637 GR
- GR value ([2]; 0.1 µM): 0.494 GR
- GR value ([2]; 0.3162 µM): 0.418 GR
- GR value ([2]; 1 µM): 0.288 GR
- GR value ([2]; 3.162 µM): 0.202 GR
- GR value (YKL-5-124; 0.001 µM): 0.388 GR
- GR value (YKL-5-124; 0.003162 µM): 0.284 GR
- GR value (YKL-5-124; 0.01 µM): 0.2 GR
- GR value (YKL-5-124; 0.03162 µM): 0.144 GR
- GR value (YKL-5-124; 0.1 µM): 0.101 GR
- GR value (YKL-5-124; 0.3162 µM): 0.0485 GR
- GR value (YKL-5-124; 1 µM): 0.0611 GR
- GR value (YKL-5-124; 3.162 µM): 0.0322 GR
- GR value (YKL-5-124; 10 µM): -0.182 GR
- GR value (BSJ-03-123; 0.001 µM): 0.926 GR
- GR value (BSJ-03-123; 0.003162 µM): 0.889 GR
- GR value (BSJ-03-123; 0.01 µM): 0.828 GR
- GR value (BSJ-03-123; 0.03162 µM): 0.779 GR
- GR value (BSJ-03-123; 0.1 µM): 0.69 GR
- GR value (BSJ-03-123; 0.3162 µM): 0.644 GR
- GR value (BSJ-03-123; 1 µM): 0.466 GR
- GR value (BSJ-03-123; 3.162 µM): 0.478 GR
- GR value (BSJ-03-123; 10 µM): -0.156 GR
- GR value (LEE011/Ribociclib; 0.001 µM): 0.792 GR
- GR value (LEE011/Ribociclib; 0.003162 µM): 0.835 GR
- GR value (LEE011/Ribociclib; 0.01 µM): 0.747 GR
- GR value (LEE011/Ribociclib; 0.03162 µM): 0.762 GR
- GR value (LEE011/Ribociclib; 0.1 µM): 0.673 GR
- GR value (LEE011/Ribociclib; 0.3162 µM): 0.617 GR
- GR value (LEE011/Ribociclib; 1 µM): 0.569 GR
- GR value (LEE011/Ribociclib; 3.162 µM): 0.466 GR
- GR value (LEE011/Ribociclib; 10 µM): 0.215 GR
- GR value ([3]; 0.001 µM): 0.942 GR
- GR value ([3]; 0.003162 µM): 0.859 GR
- GR value ([3]; 0.01 µM): 0.699 GR
- GR value ([3]; 0.03162 µM): 0.513 GR
- GR value ([3]; 0.1 µM): 0.289 GR
- GR value ([3]; 0.3162 µM): 0.169 GR
- GR value ([3]; 1 µM): 0.0774 GR
- GR value ([3]; 3.162 µM): -0.187 GR
- GR value ([3]; 10 µM): -0.492 GR
- GR value ([4]; 0.0001 µM): 0.921 GR
- GR value ([4]; 0.0003162 µM): 0.995 GR
- GR value ([4]; 0.001 µM): 0.966 GR
- GR value ([4]; 0.003162 µM): 0.93 GR
- GR value ([4]; 0.01 µM): 0.51 GR
- GR value ([4]; 0.03162 µM): -0.288 GR
- GR value ([4]; 0.1 µM): -0.361 GR
- GR value ([4]; 0.3162 µM): -0.372 GR
- GR value ([4]; 1 µM): -0.426 GR
- increase in dead-cell fraction (Flavopiridol [5]; 0.0001 µM): -0.0026
- increase in dead-cell fraction (Flavopiridol [5]; 0.0003162 µM): -0.0012
- increase in dead-cell fraction (Flavopiridol [5]; 0.001 µM): 0.002
- increase in dead-cell fraction (Flavopiridol [5]; 0.003162 µM): 0.0006
- increase in dead-cell fraction (Flavopiridol [5]; 0.01 µM): -0.0004
- increase in dead-cell fraction (Flavopiridol [5]; 0.03162 µM): -0.0008
- increase in dead-cell fraction (Flavopiridol [5]; 0.1 µM): 0.0005
- increase in dead-cell fraction (Flavopiridol [5]; 0.3162 µM): 0.0405
- increase in dead-cell fraction (Flavopiridol [5]; 1 µM): 0.485
- increase in dead-cell fraction ([6]; 0.001 µM): 0.0075
- increase in dead-cell fraction ([6]; 0.003162 µM): 0.0028
- increase in dead-cell fraction ([6]; 0.01 µM): 0.0023
- increase in dead-cell fraction ([6]; 0.03162 µM): 0.0037
- increase in dead-cell fraction ([6]; 0.1 µM): 0.0398
- increase in dead-cell fraction ([6]; 0.3162 µM): 0.0474
- increase in dead-cell fraction ([6]; 1 µM): 0.12
- increase in dead-cell fraction ([6]; 3.162 µM): 0.366
- increase in dead-cell fraction ([6]; 10 µM): 0.68

Reference: the supplement of paper PMC9663587
